# Assay results taken from patent US4649911A, “Small particle aerosol generator for treatment of respiratory disease including the lungs” (Baylor College of Medicine, priority 1986, dated 1987).
# Details: human, in vivo
# Protocol: The following hematologic studies were performed at admission and at discharge from the hospital: hematocrit, red cell count, white cell count, differential white cell count, hemoglobin concentration and reticulocyte count. Biochemical tests as follows were performed on admission, at discharge, and one month later: indirect bilirubin, direct bilirubin, total bilirubin, blood urea nitrogen, creatinine, glucose, calcium, phosphorus, albumin, total protein, alkaline phcsphatase, serum aspartate transminase (ASP), and serum alanine transaminase (ALT), lactic dehydrogenase (LDH), creatine phosphokinase (CPK), uric acid, and aldolase.
# Clinical chemical tests were performed on 14 treated and 17 control patients at admission; at discharge there were 13 treated and 15 controls, and at one month there were 11 and 17 sets of tests performed.
smiles,measurement,value
NC(=O)c1ncn([C@@H]2O[C@H](CO)[C@@H](O)[C@H]2O)n1 [ribavirin],absolute lymphocyte count,more than doubled
